{
  "source": "patent US20230340011A1",
  "about": "(Asteroid Therapeutics, priority 2022, published 2023)",
  "data": [
    {"molecular_target": "SREBP-2 (Homo sapiens (Human), UniProt Q12772)", "assay": "In vitro assay SREBP-2: PathHunter U2OS SREBP-2 Nuclear Translocation Cell Line, U18666A-stimulated", "type": "cell-based", "conditions": "PathHunter U2OS SREBP-2 nuclear translocation cells, U18666A 10 μM, overnight (16 hours)", "units": {"IC50": "nM"}, "values": [
      {"smiles": "C[C@H](CC[C@](O)(C1CCC1)C(F)(F)F)[C@H]1CC[C@H]2[C@@H]3CC=C4C[C@@H](O)CC[C@]4(C)[C@H]3CC[C@]12C", "note": "[Example 25, (3S,8S,9S,10R,13R,14S,17R)-17-((2R,5S)-5-cyclobutyl-6,6,6-trifluoro-5-hydroxyhexan-2-yl)-10,13-dimethyl-2,3,4,7,8,9,10,11,12,13,14,15,16,17-tetradecahydro-1H-cyclopenta[a]phenanthren-3-ol]", "IC50": "250 to 1000"},
      {"smiles": "C[C@H](CCC(=O)N1CCC(N2CCOC(C)(C)C2=O)CC1)[C@H]1CC[C@H]2[C@@H]3CC=C4C[C@@H](O)CC[C@]4(C)[C@H]3CC[C@]12C", "note": "[Example 524, 4-(1-((R)-4-((3S,8S,9S,10R,13R,14S,17R)-3-hydroxy-10,13-dimethyl-2,3,4,7,8,9,10,11,12,13,14,15,16,17-tetradecahydro-1H-cyclopenta[a]phenanthren-17-yl)pentanoyl)piperidin-4-yl)-2,2-dimethylmorpholin-3-one]", "IC50": "250 to 1000"},
      {"smiles": "CCC1(O)CCN(C(=O)CC[C@@H](C)[C@H]2CC[C@H]3[C@@H]4CC=C5C[C@@](C)(O)CC[C@]5(C)[C@H]4CC[C@]23C)CC1", "note": "[Example 371, (R)-1-(4-ethyl-4-hydroxypiperidin-1-yl)-4-((3S,8S,9S,10R,13R,14S,17R)-3-hydroxy-3,10,13-trimethyl-2,3,4,7,8,9,10,11,12,13,14,15,16,17-tetradecahydro-1H-cyclopenta[a]phenanthren-17-yl)pentan-1-one]", "IC50": "250 to 1000"},
      {"smiles": "CCCC1(O)CCN(C(=O)CC[C@@H](C)[C@H]2CC[C@H]3[C@@H]4CC=C5C[C@@H](O)CC[C@]5(C)[C@H]4CC[C@]23C)CC1", "note": "[Example 148, (R)-4-((3S,8S,9S,10R,13R,14S,17R)-3-hydroxy-10,13-dimethyl-2,3,4,7,8,9,10,11,12,13,14,15,16,17-tetradecahydro-1H-cyclopenta[a]phenanthren-17-yl)-1-(4-hydroxy-4-propylpiperidin-1-yl) pentan-1-one]", "IC50": "< 250"},
      {"smiles": "CC(=O)N1CC2(C1)CN(C(=O)CC[C@@H](C)[C@H]1CC[C@H]3[C@@H]4CC=C5C[C@@H](O)CC[C@]5(C)[C@H]4CC[C@]13C)C2", "note": "[Example 328, (4R)-4-[(1R,3aS,3bS,7S,9aR,9bS,11aR)-7-hydroxy-9a,11a-dimethyl-1H,2H,3H,3aH,3bH,4H,6H,7H,8H,9H,9aH,9bH,10H,11H,11aH-cyclopenta[a]phenanthren-1-yl]-1-{6-acetyl-2,6-diazaspiro[3.3]heptan-2-yl}pentan-1-one]", "IC50": "250 to 1000"},
      {"smiles": "C[C@H](CCC(=O)N1CCN(C2CC2)CC1)[C@H]1CC[C@H]2[C@@H]3CC=C4C[C@@H](O)CC[C@]4(C)[C@H]3CC[C@]12C", "note": "[Example 558, (4R)-4-[(1R,3aS,3bS,7S,9aR,9bS,11aR)-7-hydroxy-9a,11a-dimethyl-1H,2H,3H,3aH,3bH,4H,6H,7H,8H,9H,9aH,9bH,10H,11H,11aH-cyclopenta[a]phenanthren-1-yl]-1-(4-cyclopropylpiperazin-1-yl)pentan-1-one]", "IC50": "< 250"},
      {"smiles": "C[C@H](Oc1cccnc1CO)[C@H]1CC[C@H]2[C@@H]3CC=C4C[C@@H](O)CC[C@]4(C)[C@H]3CC[C@]12C", "note": "[Example 434, (3S,8S,9S,10R,13S,14S,17S)-17-((S)-1-((2-(hydroxymethyl)pyridin-3-yl)oxy)ethyl)-10,13-dim ethyl-2,3,4,7,8,9,10,11,12,13,14,15,16,17-tetradecahydro-1H-cyclopenta[a]phenanthren-3-ol]", "IC50": "250 to 1000"},
      {"smiles": "C[C@H](Oc1ccc(CO)nc1)[C@H]1CC[C@H]2[C@@H]3CC=C4C[C@@H](O)CC[C@]4(C)[C@H]3CC[C@]12C", "note": "[Example 435, (3S,8S,9S,10R,13S,14S,17S)-17-((S)-1-((6-(hydroxymethyl)pyridin-3-yl)oxy)ethyl)-10,13-dim ethyl-2,3,4,7,8,9,10,11,12,13,14,15,16,17-tetradecahydro-1H-cyclopenta[a]phenanthren-3-ol]", "IC50": "250 to 1000"},
      {"smiles": "C=CC1(O)CCN(C(=O)CC[C@@H](C)[C@H]2CC[C@H]3[C@@H]4CC=C5C[C@@H](O)CC[C@]5(C)[C@H]4CC[C@]23C)CC1", "note": "[Example 146, (R)-4-((3S,8S,9S,10R,13R,14S,17R)-3-hydroxy-10,13-dimethyl-2,3,4,7,8,9,10,11,12,13,14,15,16,17-tetradecahydro-1H-cyclopenta[a]phenanthren-17-yl)-1-(4-hydroxy-4-vinylpiperidin-1-yl) pentan-1-one]", "IC50": "< 250"},
      {"smiles": "CCN(CCc1ccccn1)C(=O)CC[C@@H](C)[C@H]1CC[C@H]2[C@@H]3CC=C4C[C@@H](O)CC[C@]4(C)[C@H]3CC[C@]12C", "note": "[Example 541, (4R)-4-[(1R,3aS,3bS,7S,9aR,9bS,11aR)-7-hydroxy-9a,11a-dimethyl-1H,2H,3H,3aH,3bH,4H,6H,7H,8H,9H,9aH,9bH,10H,11H,11aH-cyclopenta[a]phenanthren-1-yl]-N-ethyl-N-[2-(pyridin-2-yl)ethyl]pentanamide]", "IC50": "< 250"},
      {"smiles": "CNC(=O)c1ccncc1O[C@@H](C)[C@H]1CC[C@H]2[C@@H]3CC=C4C[C@@H](O)CC[C@]4(C)[C@H]3CC[C@]12C", "note": "[Example 265, 3-((S)-1-((3S,8S,9S,10R,13S,14S,17S)-3-hydroxy-10,13-dimethyl-2,3,4,7,8,9,10,11,12,13,14,15,16,17-tetradecahydro-1H-cyclopenta[a]phenanthren-17-yl)ethoxy)-N-methylisonicotinamide]", "IC50": "1000 to 10000"},
      {"smiles": "Cc1cccnc1CC[C@@H](C)[C@H]1CC[C@H]2[C@@H]3CC=C4C[C@@H](O)CC[C@]4(C)[C@H]3CC[C@]12C", "note": "[Example 130, (3S,8S,9S,10R,13R,14S,17R)-10,13-dimethyl-17-((R)-4-(3-methylpyridin-2-yl)butan-2-yl)-2,3,4,7,8,9,10,11,12,13,14,15,16,17-tetradecahydro-1H-cyclopenta[a]phenanthren-3-ol]", "IC50": "< 250"},
      {"smiles": "COC(=O)N1CCN(C(=O)OC[C@@H](C)[C@H]2CC[C@H]3[C@@H]4CC=C5C[C@@H](O)CC[C@]5(C)[C@H]4CC[C@]23C)CC1", "note": "[Example 465, 1-(2S)-2-[(1R,3aS,3bS,7S,9aR,9bS,11aS)-7-hydroxy-9a,11a-dimethyl-1H,2H,3H,3aH,3bH,4H,6H,7H,8H,9H,9aH,9bH,10H,11H,11aH-cyclopenta[a]phenanthren-1-yl]propyl 4-methyl piperazine-1,4-dicarboxylate]", "IC50": "< 250"},
      {"smiles": "C[C@H](CCC(=O)N1CCOCC1)[C@H]1CC[C@H]2[C@@H]3CC=C4C[C@@H](O)CC[C@]4(C)[C@H]3CC[C@]12C", "note": "[Example 7, (R)-4-((3S,8S,9S,10R,13R,14S,17R)-3-hydroxy-10,13-dimethyl-2,3,4,7,8,9,10,11,12,13,14,15,16,17-tetradecahydro-1H-cyclopenta[a]phenanthren-17-yl)-1-morpholinopentan-1-one]", "IC50": "< 250"},
      {"smiles": "C[C@H](CCC(=O)N(C)CCc1ccncc1)[C@H]1CC[C@H]2[C@@H]3CC=C4C[C@@H](O)CC[C@]4(C)[C@H]3CC[C@]12C", "note": "[Example 544, (R)-4-((3S,8S,9S,10R,13R,14S,17R)-3-hydroxy-10,13-dimethyl-2,3,4,7,8,9,10,11,12,13,14,15,16,17-tetradecahydro-1H-cyclopenta[a]phenanthren-17-yl)-N-methyl-N-(2-(pyridin-4-yl)ethyl)pentanamide]", "IC50": "< 250"}
    ]}
  ]
}
